Values of other authors as cited in patent US20110052625A1, “COMPOSITIONS AND METHODS FOR TREATING DIABETES USING LISOFYLLINE ANALOGS AND ISLET NEOGENESIS ASSOCIATED PEPTIDE” (DIAKINE THERAPEUTICS, INC., priority 2008, published 2011).
Ends that are not written are not given here.

System: overt diabetic NOD (Non-Obese Diabetic) mice
Settings: given alone; cited from earlier work

For “GLP-1: "a 300-amino-acid (peptide) incretin synthesized in the small and large intestine by the L-type cells" (HAEGTFTSDVSSYLEGQAAKEFIAWLVKGR; ends and bridges not checked; UniProt P01275 98-127, looked up)”, the effect on hyperglycemia is given as “no effect”.
